{
  "source": "patent US20100144606A1",
  "about": "“COMBINATION 408” (AstraZeneca AB, priority 2008, published 2010)",
  "key": {"[1]": {"molecular_target": "T1, β2 adrenoceptor (Homo sapiens, UniProt P07550)", "T1 construct": "Adherent H292 cells were removed from tissue culture flasks; endogenous in cells; host or cells: H292 cells", "T1 sequence (P07550 whole entry)": "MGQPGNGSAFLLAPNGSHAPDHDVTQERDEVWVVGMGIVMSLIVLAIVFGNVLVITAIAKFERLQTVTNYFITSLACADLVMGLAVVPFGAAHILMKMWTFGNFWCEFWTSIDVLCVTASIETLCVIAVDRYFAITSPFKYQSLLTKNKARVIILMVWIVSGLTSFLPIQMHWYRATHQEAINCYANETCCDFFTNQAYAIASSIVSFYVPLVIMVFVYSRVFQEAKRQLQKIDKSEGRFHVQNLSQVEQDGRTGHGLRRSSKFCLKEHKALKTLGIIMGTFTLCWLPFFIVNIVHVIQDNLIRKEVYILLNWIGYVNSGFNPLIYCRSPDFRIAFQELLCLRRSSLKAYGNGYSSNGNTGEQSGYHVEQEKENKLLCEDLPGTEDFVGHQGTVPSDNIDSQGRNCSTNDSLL", "assay": "Adrenergic β mediated cAMP production in H292 cells (AlphaScreen)", "format": "cell-based", "conditions": "Intrinsic Activity as a fraction relative to the maximum activity of formoterol", "procedure": "Adrenergic β Mediated cAMP Production.\nCell preparation. H292 cells were grown in 225 cm2 flasks incubator at 37° C., 5% CO2 in RPMI medium containing, 10% (v/v) FBS (foetal bovine serum) and 2 mM L-glutamine.\nExperimental Method. Adherent H292 cells were removed from tissue culture flasks by treatment with Accutase™ cell detachment solution for 15 minutes. Flasks were incubated for 15 minutes in a humidified incubator at 37° C., 5% CO2. Detached cells were re-suspended in RPMI media (containing 10% (v/v) FBS and 2 mM L-glutamine) at 0.05×10^6 cells per mL. 5000 cells in 100 μL were added to each well of a tissue-culture-treated 96-well plate and the cells incubated overnight in a humidified incubator at 37° C., 5% CO2. […]\nAlphaScreen™ cAMP detection. The concentration of cAMP (cyclic adenosine monophosphate) in the cell lysate was determined using AlphaScreen™ methodology. […] The AlphaScreen™ signal was measured using an EnVision spectrophotometer (Perkin-Elmer Inc.) with the recommended manufacturer's settings. cAMP concentrations were determined by reference to a calibration curve determined in the same experiment using standard cAMP concentrations. […] Intrinsic Activity was expressed as a fraction relative to the maximum activity determined for formoterol in each experiment. […]"}, "[2]": {"assay": "Gravimetric Vapour Sorption (GVS)", "format": "physicochemical", "conditions": "at 80% RH (±0.2%)", "procedure": "Instrument Details: • X-Ray Powder Diffraction (XRPD)—PANalytical X'Pert machine in 2Ø-Ø configuration or a PANalytical Cubix machine in Ø-Ø configuration over the scan range 2° to 40° 2Ø with 100-second exposure per 0.02° increment. The X-rays were generated by a copper long-fine focus tube operated at 45 kV and 40 mA. […] The Data was collected on zero background holders on which ˜2 mg of the compound was placed. The holder was made from a single crystal of silicon, which had been cut along a non-diffracting plane and then polished on an optically flat finish. The X-rays incident upon this surface were negated by Bragg extinction. • Differential Scanning Calorimetry (DSC) thermograms were measured using a TA Q1000 Differential Scanning Calorimeter, with aluminium pans and pierced lids. The sample weights varied between 0.5 to 5 mg. The procedure was carried out under a flow of nitrogen gas (50 mL/min) and the temperature studied from 30 to 230° C. at a constant rate of temperature increase of 10° C. per minute. • Gravimetric Vapour Sorption (GVS) profiles were measured using a Surface Measurements Systems Dynamic Vapour Sorption DVS-1 or a DVS Advantage instrument. The solid sample ca. 1-5 mg was placed into a glass vessel and the weight of the sample was recorded during a dual cycle step method (40 to 90 to 0 to 90 to 0% relative humidity (RH), in steps of 10% RH)."}, "[3]": {"system": "guinea pig trachea", "assay": "Bronchodilator activity in the guinea pig isolated tracheal ring preparation", "format": "cell-based", "conditions": "60 min, methacholine (1 μM) contracted, mean±s.e.mean", "procedure": "Evaluation of Bronchodilator Activity in the Guinea Pig Isolated Tracheal Ring Preparation\nGuinea pigs (300-500 g) were killed by cervical dislocation and the trachea was isolated. The trachea was cut into segments 2-3 cartilage rings in width and suspended in 10 ml organ baths in modified Krebs' solution (mM; NaCl, 90; NaHCO3, 45; KCl, 5; MgSO4.7H2O, 0.5; Na2HPO4.2H2O, 1; CaCl2, 2.25; glucose, 10; pH 7.4 gassed with 5% CO2, 95% O2 at 37° C.). The tracheal rings were attached to an isometric force transducer for the measurement of isometric tension. The tissues were washed and a force of 1 g was applied to each tissue. The rings were contracted with methacholine (1 μM). Once the contraction had reached a plateau, vehicle (0.01% DMSO in distilled H2O), compound W (1 nM or 3 nM), compound X (1 nM), compound Y (1 nM), a combination of compound W (3 nM) and compound X (1 nM), or a combination of compound W (1 nM) and compound Y (1 nM) was added and the tissue left for 60 min. The tension was measured in each ring at 60 min following compound addition and was expressed as a % relaxation of the constriction to methacholine (1 μM) (mean±s.e.mean). Data were collected using the Chart 4 software (ADInstruments, Charlgrove, UK)."}},
  "note": "Structures can show the parent of a compound that is named as a salt.",
  "data": [
    {"molecule": "O=C(CCNCCc1cccc(F)c1)N(CCNCCc1ccc(O)c2[nH]c(=O)sc12)C1CCCCC1", "note": "[Preparation 2, N-Cyclohexyl-N^3-[2-(3-fluorophenyl)ethyl]-N-(2-{[2-(4-hydroxy-2-oxo-2,3-dihydro-1,3-benzothiazol-7-yl)ethyl]amino}ethyl)-β-alaninamide dihydrobromide salt]", "values": [
      {"measurement": "β2 Int Act", "setting": "[1]", "result": 0.85}
    ]},
    {"molecule": "C[C@@](C(=O)O[C@H]1C[N+]2(CCc3ccc(F)cc3)CCC1CC2)(c1ccccc1)N1CCCCC1.[Br-]", "note": "[Preparation 4 bromide Form A, (R)-1-[2-(4-Fluoro-phenyl)-ethyl]-3-((S)-2-phenyl-2-piperidin-1-yl-propionyloxy)-1-azonia-bicyclo[2.2.2]octane bromide (Form A)]", "values": [
      {"measurement": "GVS weight increase", "setting": "[2]", "result": 0.1, "unit": "% w/w"}
    ]},
    {"molecule": "C[C@@](C(=O)O[C@H]1C[N+]2(CCc3ccc(F)cc3)CCC1CC2)(c1ccccc1)N1CCCCC1.[Br-]", "note": "[Preparation 4 bromide Form C, (R)-1-[2-(4-Fluoro-phenyl)-ethyl]-3-((S)-2-phenyl-2-piperidin-1-yl-propionyloxy)-1-azonia-bicyclo[2.2.2]octane bromide (Form C)]", "values": [
      {"measurement": "GVS weight increase", "setting": "[2]", "result": 4, "unit": "% w/w"}
    ]},
    {"molecule": "C[C@@](C(=O)O[C@H]1C[N+]2(CCc3ccc(F)cc3)CCC1CC2)(c1ccccc1)N1CCCCC1.Cc1ccc(S(=O)(=O)[O-])cc1", "note": "[Preparation 16, (R)-1-(4-fluorophenethyl)-3-((S)-2-phenyl-2-(piperidin-1-yl)propanoyloxy)-1-azoniabicyclo[2.2.2]octane 4-methylbenzenesulphonate]", "values": [
      {"measurement": "GVS weight increase", "setting": "[2]", "result": 0.1, "unit": "% w/w"}
    ]},
    {"molecule": "C[N+](C)(CCOCc1ccc(Cl)cc1)Cc1cnc([C@](O)(c2ccccc2)C2CCCCC2)o1.C[N+](C)(CCOCc1ccc(Cl)cc1)Cc1cnc([C@](O)(c2ccccc2)C2CCCCC2)o1.O=S(=O)([O-])c1cccc2c(S(=O)(=O)[O-])cccc12", "note": "[compound X, [2-(4-Chloro-benzyloxy)-ethyl]-[2-((R)-Cyclohexyl-hydroxy-phenyl-methyl)-oxazol-5-ylmethyl]-dimethyl-ammonium hemi-napadisylate salt, reference compound]", "values": [
      {"measurement": "percentage relaxation", "setting": "[3]; 1 nM, n=4, FIG. 29", "result": "1±0.5", "unit": "%"}
    ]},
    {"molecule": "C[C@@](C(=O)O[C@H]1C[N+]2(CCc3ccc(F)cc3)CCC1CC2)(c1ccccc1)N1CCCCC1.[Br-]", "note": "[compound Y, (R)-1-[2-(4-Fluoro-phenyl)-ethyl]-3-((S)-2-phenyl-2-piperidin-1-yl-propionyloxy)-1-azonia-bicyclo[2.2.2]octane bromide]", "values": [
      {"measurement": "percentage relaxation", "setting": "[3]; 1 nM, n=6, FIG. 30", "result": "17±3.4", "unit": "%"}
    ]},
    {"molecule": "N-Cyclohexyl-N^3-[2-(3-fluorophenyl)ethyl]-N-(2-{[2-(4-hydroxy-2-oxo-2,3-dihydro-1,3-benzothiazol-7-yl)ethyl]amino}ethyl)-β-alaninamide di-D-Mandelate salt [Preparation 3 (Form A)]", "values": [
      {"measurement": "percentage relaxation", "setting": "[3]; 1 nM, n=6, FIG. 30", "result": "48±3.9", "unit": "%"},
      {"measurement": "percentage relaxation", "setting": "[3]; 3 nM, n=4, FIG. 29", "result": "46±10.7", "unit": "%"},
      {"measurement": "GVS weight increase", "setting": "[2]", "result": 1, "unit": "% w/w"}
    ]}
  ]
}
